Test results published in patent US20230172874A1, “USE OF CANNABIDIOL FOR THE TREATMENT OF INSOMNIA ASSOCIATED TO PAIN” (priority 2021, published 2023).
Entries after “also recorded” stand apart in the source; their conditions may differ.

Legend:
neuropathic rats [1] = experiment: EEG/EMG recording of wakefulness, NREM and REM sleep in neuropathic rats; type: in vivo, male Wistar rats; details: for total NREM sleep, relative to NP rats treated with vehicle / total time of wakefulness, relative to NP rats treated with vehicle / REM sleep (total time), relative to NP rats treated with vehicle: WAY 100635 2 mg/kg; for block of the hypnotic effects of CBD (20 mg/kg): WAY 100635 2 mg/kg i.p. 10 min before CBD
Procedure: Animals. The experiments were performed on male Wistar rats weighing 250 g (six weeks). All animals were housed in standardized animal facilities under a 12 h light/dark cycle (lights on at 7 AM) with ad libitum access to food and water. All surgeries and experimental procedures were performed during the light cycle. Experimental protocols were approved by the Animal Ethics Committee of the local institutional committee for animal use and care (McGill University, Qc, Canada). These protocols follow ethical guidelines for investigation of experimental pain in conscious animals of the IASP, the Canadian Institute of Health Research guidelines for animal care and scientific use.
Spared nerve injury (SNI). SNI was performed according to the method of Decosterd and Woolf^35. Rats were deeply anaesthetized with isofluorane (5%), anaesthesia was confirmed by the absence of a nociceptive reflex reaction to a paw pinch. The sciatic nerve was exposed at mid-thigh level distal to the trifurcation and freed of connective tissue; the three peripheral branches (sural, common peroneal, and tibial nerves) of the sciatic nerve were exposed without stretching nerve structures. Both tibial and common peroneal nerves were ligated and transected together. Carprofen (5 mg/kg) was administrated subcutaneously pre-surgery as well as three days every 24 hours post-surgery as analgesic. After SNI, each rat was housed in its home cage for 15 days until the neuropathy is developed.
EEG/EMG Implantation. Neuropathic rats (10 days after surgery) and naïve rats were placed in a stereotaxic frame following isoflurane-induced anesthesia (5%). Anaesthesia was confirmed by the absence of a nociceptive reflex reaction to a paw pinch. For EEG monitoring, three stainless-steel epidural electrodes were positioned through 1.5 mm burr holes: one over the parietal cortex on each side, and the third (as a reference) in the right prefrontal cortex. In rats, their respective locations relative to bregma were −2 mm anteroposterior (AP) and −3 mm lateral (L), −7 mm AP and −3 mm L, and −4.5 mm AP and +3 mm L, according to Paxinos and Watson. For EMG monitoring, three flexible stainless-steel wire electrodes, silicon insulation removed at the terminal 3-4 mm, were implanted into the neck muscles (two bilaterally and one in the middle). Wires were fused with the electrodes and the connectors were fixed to the skull with dental acrylic (Coltene/Whaledent). Carprofen (10mg/kg) was administrated subcutaneously pre-surgery as well as three days every 24 hours post-surgically as analgesic. Each rat was single-caged post-surgery and allowed to recover for the next 5 days^13. 24 hours after surgery, the rats were placed in the recording chamber and connected to a flexible 6-flat wire (3M Scotchflex™) in a freely moving manner for several hours during the subsequent 5 days. No recordings were performed, but tolerance to the cable and sleep behavior were observed. All rats from a home cage were also grouped for one hour each day for socialization to circumvent anxious-depressive-like behavior induced by social isolation^13.
Study design for EEG and EMG assessment. […] […] In another cohort of rats rimonabant (1 mg/kg) was also injected i.p. at 6 A.M. in neuropathic rats.
(§1) EEG and EMG recording. Six days after surgery (16 days post-SNI), mechanical allodynia was assessed via von Frey test, and EEG/EMG was recorded for a period of 6 h (from 6 AM to 12 PM). The treatments (described below) were performed at 6:00 A.M., right after the recording had started. […] Consecutive 10 s epochs were subjected to a fast Fourier transform (FFT), and EEG power spectra density was computed in the frequency range of 0-64 Hz^13.
Analysis of EEG and EMG data. The three classical vigilance states as described in the rat were discriminated on the basis of the cortical EEG and neck EMG activities. […]

neuropathic rats [2] = experiment: EEG power spectra (delta, theta, sigma bands) during NREM and REM sleep; type: in vivo, male Wistar rats
Procedure: as §1
To determine the variations in power spectra induced by the pharmacological treatment of CBD and antagonists, the power densities were summed up over the frequency band of 0-25 Hz (total power). The data were then standardized by expressing all power spectral densities at the different 0.5 Hz bin frequency ranges (delta, theta, and sigma) as a percentage relative to the total power of the same epoch^16. Frequency ranges were 0-3.5Hz for delta, 4-8.5Hz for theta, and 11-14 Hz for sigma bands. The sum of power densities over a frequency band following treatments were expressed as the percentage difference from that in or naïve+veh or NP+vehicle group in statistical analysis. In the experiments with WAY 100635 the NP+CBD was compared with NP+vehicle, NP+WAY, NP+WAY+CBD.
To assess whether CBD (20 mg/kg) might affect the microarchitecture during the sleep, the intensity Delta (0.5-4 Hz), Theta ([…]) and Sigma (10-15 Hz) waves were measured during 6 hours of light phase in the 3 groups of rats (Naïve, SNI+VEH and SNI+CBD 20mg/kg). Data were converted as a percentage of variation vs. naive animals and One-way ANOVA was performed on the power of delta, theta and sigma waves during NREM and REN sleep.
To assess whether the 5-HT1A selective antagonist WAY 100635 (2 mg/kg) might reverse the effect of CBD (20 mg/kg) in the enhancement of power density (Delta, Theta, and Sigma waves) during sleep, the power spectra were measured for 6 hours in four groups of rats. The first group were NP rats treated with CBD vehicle (n=8), the second group were NP rats treated with WAY 100635 alone at 2 mg/kg (n=6), the third group were NP rats treated with WAY 100635 (2 mg/kg)+CBD (20 mg/kg; n=6), and the fourth group were NP treated with CBD at 20 mg/kg (n=8). Data were converted as a percentage of variation vs NP animals treated with vehicle.

rats = details: rat, in vivo; cited from earlier work
[3] = 6 h EEG/EMG, i.p., CBD 20 mg/kg
[4] = 6 h EEG/EMG, i.p., CBD 20 mg/kg, listed as WAY
[5] = 6 h EEG/EMG, i.p., CBD 20 mg/kg, rimonabant 1 mg/kg
[6] = NP rats, 6 h EEG/EMG, i.p., CBD 20 mg/kg, rimonabant 1 mg/kg

COc1ccccc1N1CCN(CCN(C(=O)C2CCCCC2)c2ccccn2)CC1 [WAY 100635]
REM sleep, compared to NP rats treated with CBD 20 mg/kg (neuropathic rats [1]; 6 h EEG/EMG, WAY 100635 alone i.p.): decrease in REM sleep
total NREM sleep, relative to NP rats treated with vehicle (neuropathic rats [1]; [3]): statistically reduced the time spent NREM sleep
total time of wakefulness, relative to NP rats treated with vehicle (neuropathic rats [1]; [3]): increase in wakefulness
total NREM sleep, relative to NP rats treated with vehicle (neuropathic rats [1]; [4]): impaired NREM sleep
total time of wakefulness, relative to NP rats treated with vehicle (neuropathic rats [1]; [4]): increased wakefulness
REM sleep (total time), relative to NP rats treated with vehicle (neuropathic rats [1]; [5]): no statistical difference was detected
total time of wakefulness, relative to NP rats treated with CBD 20 mg/kg (neuropathic rats [1]; 6 h EEG/EMG, i.p., WAY 100635 2 mg/kg alone or 10 min before CBD 20 mg/kg): increase in wakefulness
block of the positive effect of CBD (20 mg/kg) on REM sleep (neuropathic rats [1]; NP rats, 6 h EEG/EMG, WAY 100635 (1 mg/kg) as printed, before CBD, p<0.001): able to block the positive effect of CBD
block of the hypnotic effects of CBD (20 mg/kg) (neuropathic rats [1]; NP rats): fully prevented
block of the hypnotic effects of CBD (20 mg/kg) (neuropathic rats [1]; NP rats, listed as WAY100635): Blocks the Hypnotic Effects of CBD
power of Delta waves during REM sleep, between groups (ANOVA) (neuropathic rats [2]; NP rats, 6 h, CBD 20 mg/kg, WAY 100635 2 mg/kg): no statistically significant differences between groups
block of the theta power increase induced by CBD (20 mg/kg) on NREM sleep (neuropathic rats [2]; NP rats, WAY 100635 2 mg/kg, p<0.0003): able to block the theta power increase induced by CBD
block of the effects of CBD (20 mg/kg) on Sigma power during REM sleep (neuropathic rats [2]; NP rats, WAY 100635 2 mg/kg, p<0.0019): blocks the effects of CBD
block of the Delta power increase induced by CBD (20 mg/kg) on NREM sleep (neuropathic rats [2]; NP rats, WAY 100635 2 mg/kg, p<0.0048): able to block the Delta power increase induced by CBD
block of the positive effect of CBD (20 mg/kg) on theta waves during REM sleep (neuropathic rats [2]; NP rats, WAY 100635 2 mg/kg, p<0.0061): able to block the positive effect of CBD
intensity of Sigma waves during NREM sleep, relative to NP animals administered CBD 20 mg/kg (neuropathic rats [2]; WAY 100635 2 mg/kg alone (p<0.038) or WAY 100635+CBD (p<0.0006)): differences were detected

Cc1c(C(=O)NN2CCCCC2)nn(-c2ccc(Cl)cc2Cl)c1-c1ccc(Cl)cc1 [Rimonabant]
REM sleep (total time), relative to NP rats treated with vehicle (neuropathic rats [1]; [5]): Decrease the Time Spent in REM; also recorded: difference
REM sleep (total time), relative to NP rats treated with vehicle (neuropathic rats [1]; 6 h EEG/EMG, i.p., CBD 20 mg/kg, rimonabant 1 mg/kg, listed as rimonabant): reduction of REM sleep time; also recorded: decreases REM sleep
REM sleep, relative to naïve animals treated with vehicle (neuropathic rats [1]; [6]): difference
wakefulness, relative to naïve animals treated with vehicle (neuropathic rats [1]; [6]): difference
reversal of sleep perturbations induced by neuropathic pain (sleep-wake cycle) (neuropathic rats [1]; NP rats, i.p., CBD 20 mg/kg, rimonabant 1 mg/kg): Does not Reverse the Sleep Perturbations
time spent in NREM sleep (rats): reducing the time spent in NREM sleep and REM sleep
time spent in REM sleep (rats): reducing the time spent in NREM sleep and REM sleep
time spent in wakefulness (rats): dose-dependently increased the time spent in wakefulness
